Assay results as given in US4843089A, “Antimycotic agent” (Bayer Aktiengesellschaft, priority 1984, dated 1989).

Experiments:
[1] = tested on: Candida; assay: Antimycotic in vivo activity (oral) on candidosis of mice; set-up: species or system mice (SPF-CF1); conditions: in words, 25-100 mg/kg, versus compounds (A) and (B)
Method: Mice of the SPF-CF1 type were infected intravenously with 1-2×10^6 logarithmically growing Candida cells suspended in physiological saline solution. The animals were treated orally with in each case 25-100 mg of the products/kg of body weight one hour before and seven hours after infection. Untreated animals died 3 to 6 days after infection. The survival rate on the 6th day after infection was about 5% in the untreated control animals.

[2] = tested on: dermatophytes, molds and yeasts; assay: Antimycotic in vitro activity, series dilution test (overall comparison with compound (B)); assay type: cell-based; conditions: in words; versus compound (B) known from the prior art
Method: The in vitro tests were carried out in a series dilution test using germ inocular of on average 5×10^3 to 10^4 germs/ml of substrate. The nutrient medium used was (a) for dermatophytes and molds. Sabourand's milieu d'epreuve (b) for yeasts: meat extract/glucose broth. The incubation temperature was 28° C. to 37° C. and the incubation period was 24 to 96 hours for yeasts and 96 hours for dermatophytes and molds.

[3] = tested on: Trichophyton von mentagrophytes; assay: Antimicrobial in vivo activity (local), experimental trichophytosis in guinea pigs; conditions: 0.1% strength solution, 1x daily

Compound	action against candidosis of mice compared with compounds (A) and (B) [1]	antimycotic action in vitro compared with compound (B) [2]	action (local) on experimental trichophytosis, in words [3]
CON=CC(C)(C)C(O)(COc1ccc(Cl)cc1)Cn1cncn1 (stereo not shown) [Example 4]	better action than compounds (A) and (B)	better antimycotic action than compound (B)	
CC(C)(C=O)C(O)(COc1ccc(-c2ccccc2)cc1)Cn1cncn1 (stereo not shown) [Example 5]	better action than compounds (A) and (B)		
CC(C)(C=O)C(O)(CCc1ccc(Cl)cc1)Cn1cncn1 (stereo not shown) [Example 7]		better antimycotic action than compound (B)	
CC(C)(C=O)C(O)(CCc1ccc(Cl)cc1Cl)Cn1cncn1 (stereo not shown) [Example 8]	better action than compounds (A) and (B)		
CON=CC(C)(C)C(O)(C#Cc1ccc(Cl)cc1)Cn1cncn1 (stereo not shown) [Example 10]	better action than compounds (A) and (B)	better antimycotic action than compound (B)	
CC(C)(C=O)C(O)(C#Cc1ccc(-c2ccccc2)cc1)Cn1cncn1 (stereo not shown) [Example 11]		better antimycotic action than compound (B)	
CON=CC(C)(C)C(O)(C#Cc1ccc(-c2ccccc2)cc1)Cn1cncn1 (stereo not shown) [Example 12]	better action than compounds (A) and (B)	better antimycotic action than compound (B)	
CON=CC(C)(C)C(O)(C#Cc1ccc(Cl)cc1Cl)Cn1cncn1 (stereo not shown) [Example 13]	better action than compounds (A) and (B)	better antimycotic action than compound (B)	
CC(C)(C=O)C(O)(CCc1ccc(Cl)cc1)Cn1ccnc1 (stereo not shown) [Example 16]	better action than compounds (A) and (B)		
CON=CC(C)(C)C(O)(CSc1ccc(C(F)(F)F)c(Cl)c1)Cn1cncn1 (stereo not shown) [Example 17]		better antimycotic action than compound (B)	
CON=CC(C)(C)C(O)(CSc1ccc(Br)cc1)Cn1cncn1 (stereo not shown) [Example 18]	better action than compounds (A) and (B)	better antimycotic action than compound (B)	good action
CC(C)(C=O)C(O)(CSc1ccc(Br)cc1)Cn1cncn1 (stereo not shown) [Example 19]		better antimycotic action than compound (B)	
CON=CC(C)(C)C(O)(CSc1ccc(Cl)cc1)Cn1ccnc1 (stereo not shown) [Example 20]	better action than compounds (A) and (B)	better antimycotic action than compound (B)	good action
CON=CC(C)(C)C(O)(CSc1ccc(Br)cc1)Cn1ccnc1 (stereo not shown) [Example 21]		better antimycotic action than compound (B)	
CON=CC(C)(C)C(O)(CCc1ccc(Cl)cc1)Cn1cncn1 (stereo not shown) [Example 22]		better antimycotic action than compound (B)	good action
CCCCON=CC(C)(C)C(O)(CCc1ccc(Cl)cc1)Cn1cncn1 (stereo not shown) [Example 23]	better action than compounds (A) and (B)	better antimycotic action than compound (B)	
CON=CC(C)(C)C(O)(COc1ccc(Cl)cc1Cl)Cn1cncn1 (stereo not shown) [Example 24]	better action than compounds (A) and (B)		

Compound	action against candidosis of mice compared with compounds (A) and (B) [1]	antimycotic action in vitro compared with compound (B) [2]	action (local) on experimental trichophytosis, in words [3]
CC(C)(C=NOCc1ccc(Cl)cc1)C(O)(CCc1ccc(Cl)cc1)Cn1cncn1 (stereo not shown) [Example 28]	better action than compounds (A) and (B)	better antimycotic action than compound (B)	
CC(C)(C=NOCc1ccc(Cl)cc1Cl)C(O)(CCc1ccc(Cl)cc1)Cn1cncn1 (stereo not shown) [Example 29]		better antimycotic action than compound (B)	
CC(C)(C=NOCc1ccc(Cl)cc1)C(O)(COc1ccc(Cl)c(Cl)c1)Cn1cncn1 (stereo not shown) [Example 30]		better antimycotic action than compound (B)	
CON=CC(C)(C)C(O)(CSc1ccc(Cl)cc1)Cn1cncn1 (stereo not shown) [Example 32]	better action than compounds (A) and (B)	better antimycotic action than compound (B)	good action
C=CCON=CC(C)(C)C(O)(CSc1ccc(Cl)cc1)Cn1cncn1 (stereo not shown) [Example 33]		better antimycotic action than compound (B)	
CON=CC(C)(C)C(O)(Cn1cncn1)c1ccc(-c2ccccc2)cc1 (stereo not shown) [Example 35]		better antimycotic action than compound (B)	
C=CCON=CC(C)(C)C(O)(Cn1cncn1)c1ccc(-c2ccccc2)cc1 (stereo not shown) [Example 36]		better antimycotic action than compound (B)	
CON=CC(C)(C)C(O)(Cn1cncn1)c1ccc(Cl)cc1 (stereo not shown) [Example 37]	better action than compounds (A) and (B)	better antimycotic action than compound (B)	good action
CCCON=CC(C)(C)C(O)(Cn1cncn1)c1ccc(Cl)cc1 (stereo not shown) [Example 38]	better action than compounds (A) and (B)	better antimycotic action than compound (B)	good action
CC(C)(C=NOCC1CCCCC1)C(O)(Cn1cncn1)c1ccc(Cl)cc1 (stereo not shown) [Example 39]	better action than compounds (A) and (B)		
CCCCON=CC(C)(C)C(O)(Cn1cncn1)c1ccc(Cl)cc1 (stereo not shown) [Example 40]	better action than compounds (A) and (B)		good action
CCCC(O)(Cn1cncn1)C(C)(C)C=NOCc1ccc(Cl)cc1 (stereo not shown) [Example 41]		better antimycotic action than compound (B)	
CCCC(O)(Cn1cncn1)C(C)(C)C=NOCc1ccc(Cl)cc1Cl (stereo not shown) [Example 42]		better antimycotic action than compound (B)	
CCC(O)(Cn1cncn1)C(C)(C)C=NOCc1ccc(Cl)cc1 (stereo not shown) [Example 43]		better antimycotic action than compound (B)	
CCCCC(O)(Cn1cncn1)C(C)(C)C=NOCC1CCCCC1 (stereo not shown) [Example 45]		better antimycotic action than compound (B)	
CCCCC(O)(Cn1cncn1)C(C)(C)C=NOCc1ccc(Cl)cc1 (stereo not shown) [Example 46]		better antimycotic action than compound (B)	
CCCCC(O)(Cn1cncn1)C(C)(C)C=NOCc1ccc(Cl)cc1Cl (stereo not shown) [Example 47]		better antimycotic action than compound (B)	
